Laboratory results reported in US6830885B1, “Nucleic acid molecule, method and kit for selecting a nucleic acid having a desired feature” (priority 2000, dated 2004).
Where two headings read alike, the source gives them in different places.

Legend:
Sindbis viral particles = assay: Virus production from BHK-21 cells infected with VB222-derived Sindbis viral particles under drug treatment; assay type: cell-based; details: multiplicity of infection 0.05, viral particles collected 6 hours later
Procedure: The viral genome was transcribed from plasmid VB222. The exogenous nucleic acid encodes GFP to facilitate detection of transfected and/or infected cells. BHK-21 cells were transfected with said viral genome and viral particles were collected 34 hours later. These viral particles were tittered by standard plaque assay and used to infect BHK-21 cells at a multiplicity of infection of 0.05. The medium was changed one hour post-infection. Drugs were added one hour post-infection at a concentration of 200 nM (okadaic acid) or 30 μg/ml (cerulenin) and viral particles were collected 6 hours later. […] Treatment with the drug could be maintained while propagating the viral particles, thereby further decreasing the number of viral particles produced from viral genomes expressing an exogenous nucleic acid encoding a peptide or protein that is not involved in drug-resistance.

[1] = tested on: Sindbis-infected BHK-21 cells; details: cited from earlier work

C=C1[C@@H](O)[C@@H]2O[C@]3(CC[C@H](/C=C/[C@@H](C)[C@@H]4CC(C)=C[C@@]5(O[C@H](C[C@@](C)(O)C(=O)O)CC[C@H]5O)O4)O3)CC[C@H]2O[C@@H]1[C@@H](O)C[C@H](C)[C@H]1O[C@@]2(CCCCO2)CC[C@H]1C [okadaic acid]
decrease in virus production (Sindbis viral particles; okadaic acid 200 nM added one hour post-infection): 13 fold
production of viral particles ([1]; 200 nM): impairs production of viral particles

C/C=C/C/C=C/CCC(=O)[C@H]1O[C@H]1C(N)=O [cerulenin]
decrease in virus production (Sindbis viral particles; cerulenin 30 μg/ml added one hour post-infection): 39 fold
production of viral particles ([1]; 30 μg/ml): impairs production of viral particles
